Read-outs that look alike come from different tables or passages of the source.
What was measured:
H4 mCherry-GFP-LC3 cells = assay: Test 3: Autophagy assay (mCherry-GFP-LC3 reporter, high-content imaging); assay type: cell-based, human; settings: 16-18 h treatment, mCherry-positive LC3 puncta/cell; for EC50: Homo sapiens
Text: Autophagy is a catabolic pathway that degrades bulk cytosol in lysosomal compartments enabling amino acids and fatty acids to be recycled. One of the key regulators of autophagy is the mammalian target of rapamycin (mTOR), a conserved serine/threonine kinase which suppresses the initiation of the autophagic process when nutrients, growth factors and energy are available. To quantify autophagy induction by mTOR inhibitors, we use a mCherry-GFP-LC3 reporter which is amenable to retroviral delivery into mammalian cells, stable expression and analysis by fluorescence microscopy.
The amino acid sequence of the mCherry-GFP-LC3 construct is shown below (SEQ ID NO: 1). The mCherry sequence is underlined, GFP sequence is in bold and LC3A sequence is boxed.
Described hereinafter is an imaging protocol and image recognition algorithm to visualize and measure changes in the autophagic pathway.
Quantification of Autophagy Using High-Content Imaging and Analysis
• 1. Day 0: Cell plating. Subconfluent H4 mCherry-GFP-LC3 cells are harvested by trypsinization, resuspended in growth medium, and counted (H4 cells: Human neuroglioma cell line (ATCC)). A cell suspension of 66′000 cells/mL is prepared and 30 μL are added into the wells of a 384-well plate using an electronic multichannel pipette. […] The cell plates are briefly spun down and placed at 37° C. and 5% CO2. • 2. Day 1: Compound treatment. Compound dose responses are prepared in DMSO. The dose responses are then diluted 1:50 in medium. 10 ul of the diluted compound is added to 30 ul of cells, yielding a final 1:200 dilution of the original compound and final of 0.5% DMSO. Compound-treatments are performed in triplicates. The 384-well plates are placed at 37° C. and 5% CO2. Compound treatment is performed for 16-18 h (see Note 1). • 3. Day 2: Cell fixation. Cells are fixed by adding 10 μL/well 5× concentrated Mirsky's fixative supplemented with 25 μg/mL Hoechst33342. […] The 384-well plate is briefly spun down and incubated for 1 h at room temperature. Cells are then washed using a 384-well plate washer using a protocol which aspirates the volume down to 10 μL/well before dispensing 100 μL/well 1×TBS. Aspiration and dispensing steps are repeated 4 times and a final volume of 100 μL/well is left. The plate is sealed using an adhesive PCR foil. • 4. Imaging. The bottom of the plate is cleaned with 70% ethanol and then imaged using the InCell 1000 automated epifluorescence microscope. 20× magnification is used and 4 different areas (fields) are imaged per well, this typically captures a total of around 400 cells per well. Hoechst33342 images are acquired using an excitation of 360 nm (D360_40x filter), an emission of 460 nm (HQ460_40M filter) and an exposure time of 150 ms. GFP images are acquired using an excitation of 475 nm (S475_20x filter), an emission of 535 nm (HQ535_50M filter) and an exposure time of 1 s. mCherry images are acquired using an excitation of 535 nm (HQ535_50x filter), an emission of 620 nm (HQ620_60M filter) and an exposure time of 1 s. A quadruple band pass mirror is used for all images. • 5. Image analysis. The InCell Analysis software is used to analyze the images using the Multi Target Analysis algorithm. First, nuclei are detected in the Hoechst33342 image using top-hat segmentation and a minimal nuclear area of 50 μm^2. Cells are defined using a collar of 10 μm around the nuclei. Second, puncta (organelles) are identified in the mCherry image inside the cells using multi-top-hat segmentation. Third, the mask of the mCherry puncta is transferred onto the GFP image. Fourth, the GFP fluorescence intensity inside the mCherry puncta mask is measured (reference intensity). • 6. The ‘organelles’ parameter reflects mCherry-positive puncta of the mCherry-GFP-LC3 reporter and is used to calculate ‘LC3 puncta/cell’. […]

recombinant human mTOR = recombinant human mTOR (Homo sapiens (Human), UniProt P42345); assay: Test 1: mTOR ATP-binding assay based on TR-FRET; settings: GST-tagged truncated human mTOR, tracer-314, TR-FRET
recombinant human mTOR, sequence (P42345 1360-2549): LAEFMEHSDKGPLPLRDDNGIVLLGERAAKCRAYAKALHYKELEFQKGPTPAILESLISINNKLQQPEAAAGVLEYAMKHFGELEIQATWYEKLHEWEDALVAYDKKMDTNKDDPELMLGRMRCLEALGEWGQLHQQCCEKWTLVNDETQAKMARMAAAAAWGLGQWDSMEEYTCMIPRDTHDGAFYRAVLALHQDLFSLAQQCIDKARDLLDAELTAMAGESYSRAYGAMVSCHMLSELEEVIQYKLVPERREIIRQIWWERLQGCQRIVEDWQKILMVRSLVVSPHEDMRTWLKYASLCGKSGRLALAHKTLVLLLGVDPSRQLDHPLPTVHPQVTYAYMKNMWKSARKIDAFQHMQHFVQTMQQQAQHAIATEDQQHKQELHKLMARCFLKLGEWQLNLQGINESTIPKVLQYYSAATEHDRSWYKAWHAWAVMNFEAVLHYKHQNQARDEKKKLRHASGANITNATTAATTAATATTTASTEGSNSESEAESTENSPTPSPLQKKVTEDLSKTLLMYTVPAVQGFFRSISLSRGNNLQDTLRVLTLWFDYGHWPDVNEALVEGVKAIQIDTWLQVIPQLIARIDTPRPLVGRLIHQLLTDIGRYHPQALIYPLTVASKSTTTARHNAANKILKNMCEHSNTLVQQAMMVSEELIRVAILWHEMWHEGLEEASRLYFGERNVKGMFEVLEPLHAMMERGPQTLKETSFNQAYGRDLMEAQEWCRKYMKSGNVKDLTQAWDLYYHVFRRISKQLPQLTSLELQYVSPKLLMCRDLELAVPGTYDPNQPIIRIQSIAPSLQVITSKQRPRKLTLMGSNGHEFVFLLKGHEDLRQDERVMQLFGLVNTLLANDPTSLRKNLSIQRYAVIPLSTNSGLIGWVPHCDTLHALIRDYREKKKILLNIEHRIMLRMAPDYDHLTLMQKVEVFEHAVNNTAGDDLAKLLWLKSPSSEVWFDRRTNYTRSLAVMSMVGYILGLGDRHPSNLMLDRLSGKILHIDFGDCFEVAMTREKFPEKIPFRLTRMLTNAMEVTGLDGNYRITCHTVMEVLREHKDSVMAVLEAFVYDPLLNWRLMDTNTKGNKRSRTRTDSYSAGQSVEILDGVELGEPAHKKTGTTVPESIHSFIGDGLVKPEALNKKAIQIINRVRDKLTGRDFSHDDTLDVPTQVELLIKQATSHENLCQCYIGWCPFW
Description: Test 1: mTOR ATP-Binding Assay Based on TR-FRET for Recombinant Human mTOR
2. The final volume of the assay is 10 μL and the order of addition is as follows:
50 nL of compounds dilution;
Incubated for 60 minutes at room temperature.
TR-FRET measured in Biotek Synergy2 reader at: • Excitation 340 nm/emission 665 nm • Excitation 340 nm/emission 620 nm
The following final concentrations are used:
1 nM Europium anti-GST antibody;
The following controls are used:
3. IC50 determinations may be performed as follows:
The Emission ratio is converted to percentage of inhibition for each compound concentration. IC50 values are calculated by fitting a sigmoidal dose-response curve to a plot of assay readout over compound concentration. All fits and analysis are performed with the program XLfit4 (ID Business Solutions, Guildford, UK).

[1] = test system: cellular mTOR kinase activity (phosphorylation of Thr 389 of S6K1) in TSC1-/- MEFs; assay: Test 2: Cellular mTOR assay (P-P70S6K T389 Surefire); assay type: cell-based; settings: Mus musculus
Description: Test 2: Cellular mTOR Assay
30 μl are added per well to a 384 well-plate using a Multidrop instrument (Thermo scientific), resulting in 4000 cells/well. The plates are incubated at 37° C./5% CO2 for 20 hours (to allow for settling and adherance to the surface).
Eight 3-fold serial dilutions of test-compounds (beginning at 1.8 mM) are prepared in 90% DMSO and compiled on 384 well master plates (Greiner). A pan-pPI3K/mTOR inhibitor (0.8 mM of 8-(6-methoxy-pyridin-3-yl)-3-methyl-1-(4-piperazin-1-yl-3-trifluoromethyl-phenyl)-1,3-dihydro-imidazo[4,5-c]quinolin-2-one in 90% DMSO) is added to the wells for the low control. 90% DMSO is added to the wells for the high controls. Compounds are provided as 250 nl shots (Hummingbird) in 384 well-polypropylene microplates (compound plates). 50 μl of growth medium is added to the compound plates (dilution 1:200) with the Multidrop. After shaking (1 min at 2000 rpm), 10 μl of the first dilution is then transferred to the cell plate with a Matrix Plate Mate 2×3 pipettor (final dilution 1:4). After 1 hour of treatment, medium is removed from the plate and 20 μl of Surefire lysis buffer is added per well with the Multidrop.
Cell lysates are frozen for 15 minutes, thawed with shaking and transferred to the experimental 384 well-Proxiplate (5 μl/well) for the P-P70S6K (T389) Surefire assay (Perkin Elmer #TGR70S50). The first mix is composed of the reaction buffer (containing the specific antibody), the activation buffer and the acceptor beads (40 vol, 10 vol and 1 vol respectively). 5 μl per well is added to the lysates with a Zephyr® SPE Workstation (Caliper Life Sciences) and incubated for 2 hours with shaking at room temperature. After this incubation time, the second mix of dilution buffer and donor beads (20 vol and 1 vol respectively) is added to the plate with the same instrument (2 μl/well). After 2 hours, the plate can be read with an EnVision® Multilabel Reader (Perkin Elmer). Since the beads are light sensitive, their transfer and incubation is executed in a dark room (greenlight).
The raw data is used to generate dose response curves for test compounds and IC50 values calculated therefrom.

[2] = TSC1-/- MEFs, 1 hour treatment, P-P70S6K (T389), read-out: Test 2: T389 cellular assay IC50
[3] = 1 h, read-out: Test 2: T389 cellular assay IC50 (nM)

Row | IC50 [1, 2] | Test 3: Autophagy EC50 (nM) (H4 mCherry-GFP-LC3 cells) | Structure (SMILES) | EC50 (H4 mCherry-GFP-LC3 cells) | IC50 (recombinant human mTOR) | IC50 [1, 3]
1 | 1140 nM |  | C[C@H]1COCCN1c1nc(N2CCOC[C@@H]2C)c2nc(-c3ccc(-c4ncc[nH]4)cc3)[nH]c2n1 [Example 30, 8-[4-(1H-Imidazol-2-yl)-phenyl]-2,6-bis-((S)-3-methyl-morpholin-4-yl)-9H-purine] | 1460 nM | 364 nM | 
2 |  |  | C[C@H]1COCCN1c1nc(N2CCOC[C@@H]2C)c2nc(-c3ccc(N)nc3)[nH]c2n1 [Example 27, 5-[2,6-Bis-((S)-3-methyl-morpholin-4-yl)-9H-purin-8-yl]-pyridin-2-ylamine] | 4740 nM | 2410 nM | 1190 nM
3 |  |  | C[C@@H]1COCCN1c1nc(N2CCCOCC2)nc2[nH]c(-c3cccc4[nH]ccc34)nc12 [Example 3, 8-(1H-Indol-4-yl)-6-((R)-3-methyl-morpholin-4-yl)-2-[1,4]oxazepan-4-yl-9H-purine] | 422 nM | 164 nM | 76 nM
4 |  |  | C[C@@H]1COCCN1c1nc(N2CCOC[C@H]2C)c2nc(-c3cnc(N)nc3)[nH]c2n1 [Example 29, 5-[2,6-Bis-((R)-3-methyl-morpholin-4-yl) 9H-purin-8-yl]-pyrimidin-2-yl-amine] | 3610 nM | 1310 nM | 498 nM
5 |  |  | C[C@@H]1COCCN1c1nc(N2CCOC[C@H]2C)c2nc(-c3cc(CO)cc4[nH]ccc34)[nH]c2n1 [Example 6, {4-[2,6-Bis-((R)-3-methyl-morpholin-4-yl)-9H-purin-8-yl]-1H-indol-6-yl}-methanol] | 423 nM | 66 nM | 1180 nM
6 |  |  | C[C@@H]1COCCN1c1nc(N2CCC(C(F)(F)F)CC2)nc2[nH]c(-c3cccc4[nH]ccc34)nc12 [Example 22, 8-(1H-Indol-4-yl)-6-((R)-3-methyl-morpholin-4-yl)-2-(4-trifluoromethyl-piperidin-1-yl)-9H-purine] | 1680 nM | 1510 nM | 1040 nM
7 | 190 nM |  | C[C@@H]1COCCN1c1nc(N2CCOC[C@H]2C)c2nc(-c3cc[nH]n3)[nH]c2n1 [Example 11, 2,6-Bis-((R)-3-methyl-morpholin-4-yl)-8-(1H-pyrazol-3-yl)-9H-purine] | 1520 nM | 385 nM | 
8 | 806 nM | n.m. | C[C@H]1COCCN1c1nc(N2CCOC[C@@H]2C)c2nc(-c3ccccn3)[nH]c2n1 [Example 8, 2,6-Bis-((S)-3-methyl-morpholin-4-yl)-8-pyridin-2-yl-9H-purine] |  | 1030 nM | 
9 | 135 nM |  | C[C@H]1COCCN1c1nc(N2CCOC[C@@H]2C)c2nc(-c3cc[nH]n3)[nH]c2n1 [Example 10, 2,6-Bis-((S)-3-methyl-morpholin-4-yl)-8-(1H-pyrazol-3-yl)-9H-purine] | 1440 nM | 343 nM | 
10 | 997 nM |  | C[C@@H]1COCCN1c1nc(N2CCOC[C@@H]2C)nc2[nH]c(-c3ccccn3)nc12 [Example 7, 2-((S)-3-Methyl-morpholin-4-yl)-6-((R)-3-methyl-morpholin-4-yl)-8-pyridin-2-yl-9H-purine] | 1320 nM | 184 nM | 
11 |  |  | COC(=O)c1cc(-c2nc3c(N4CCOC[C@H]4C)nc(N4CCOC[C@H]4C)nc3[nH]2)c2cc[nH]c2c1 [Example 32, 4-[2,6-Bis-((R)-3-methyl-morpholin-4-yl)-9H-purin-8-yl]-1H-indole-6-carboxylic acid methyl ester] | > 6000 nM | 533 nM | 1120 nM
12 | 249 nM | n.m. | C[C@@H]1COCCN1c1nc(N2CCN(C3COC3)CC2)nc2[nH]c(-c3cccc4[nH]ccc34)nc12 [Example 18, 8-(1H-Indol-4-yl)-6-((R)-3-methyl-morpholin-4-yl)-2-(4-oxetan-3-yl-piperazin-1-yl)-9H-purine] |  | 91 nM | 
13 |  |  | CC[C@@H]1COCCN1c1nc(N2CCOC[C@H]2C)c2nc(-c3cccc4[nH]ccc34)[nH]c2n1 [Example 15, 2-((R)-3-Ethyl-morpholin-4-yl)-8-(1H-indol-4-yl)-6-((R)-3-methyl-morpholin-4-yl)-9H-purine] | 752 nM | 60 nM | 194 nM
14 |  |  | C[C@@H]1COCCN1c1nc(N2CCOC[C@H]2C)c2nc(-c3ccc(N)nc3)[nH]c2n1 [Example 28, 5-[2,6-Bis-((R)-3-methyl-morpholin-4-yl)-9H-purin-8-yl]-pyridin-2-ylamine] | 2370 nM | 754 nM | 272 nM

Row | Structure (SMILES) | IC50 [1, 2] | Test 3: Autophagy EC50 (nM) (H4 mCherry-GFP-LC3 cells) | EC50 (H4 mCherry-GFP-LC3 cells) | IC50 (recombinant human mTOR) | IC50 [1, 3]
15 | C[C@@H]1COCCN1c1nc(N2CCN(C)CC2)nc2[nH]c(-c3cccc4[nH]ccc34)nc12 [Example 16, 8-(1H-Indol-4-yl)-6-((R)-3-methyl-morpholin-4-yl)-2-(4-methyl-piperazin-1-yl)-9H-purine] |  | n.m. |  | 308 nM | 259 nM

From patent US9334271B2, “Purine derivatives and their use in the treatment of disease” (Novarits AG, priority 2012, dated 2016)
